Test results reported in patent publication US12679848B2, “Plasma kallikrein inhibitors” (Merck Sharp & Dohme LLC, priority 2020, dated 2026).

Key:
Human plasma kallikrein = molecular target: T1, Human plasma kallikrein (Homo sapiens, UniProt P03952); assay: Plasma Kallikrein Assay; type: biochemical; conditions: purified Human plasma kallikrein 0.5 nM, substrate Acetyl-K-P-R-AFC, HEPES pH 7.4; read-out: PKal IC50
T1 construct: yields a heavy chain (371 amino acids) and a light chain (248 amino acids); The active site of plasma kallikrein is contained in the light chain; purchased Enzyme Research Laboratories
How it was run: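 Purified human plasma kallikrein at 0.5 nM final with substrate Acetyl-K-P-R-AFC at […], in 50 mM HEPES pH 7.4, 150 mM NaCl, 5 mM CaCl2, 0.1% PEG 8000, at rt or 37° C after enzyme-inhibitor equilibration. IC50 from four-parameter logistic fit of fluorescence rate; Ki via Cheng-Prusoff.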

human factor XIa = human factor XIa (Homo sapiens, UniProt P03951); assay: Factor XIa Assay; type: biochemical; conditions: human factor XIa 0.04 nM, substrate GPR-AFC, 30 min pre-incubation, 25° C., pH 7.4; read-out: FXIa IC50
Chain of human factor XIa (P03951 388-625 limits assumed): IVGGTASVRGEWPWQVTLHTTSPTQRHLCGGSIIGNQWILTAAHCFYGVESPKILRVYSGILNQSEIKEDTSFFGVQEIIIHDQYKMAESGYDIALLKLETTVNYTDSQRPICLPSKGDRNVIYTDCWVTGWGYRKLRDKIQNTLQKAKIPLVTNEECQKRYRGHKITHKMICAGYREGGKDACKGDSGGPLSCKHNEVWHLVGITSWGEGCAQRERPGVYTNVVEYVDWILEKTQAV
Chain of human factor XIa (P03951 19-387 partner limits assumed): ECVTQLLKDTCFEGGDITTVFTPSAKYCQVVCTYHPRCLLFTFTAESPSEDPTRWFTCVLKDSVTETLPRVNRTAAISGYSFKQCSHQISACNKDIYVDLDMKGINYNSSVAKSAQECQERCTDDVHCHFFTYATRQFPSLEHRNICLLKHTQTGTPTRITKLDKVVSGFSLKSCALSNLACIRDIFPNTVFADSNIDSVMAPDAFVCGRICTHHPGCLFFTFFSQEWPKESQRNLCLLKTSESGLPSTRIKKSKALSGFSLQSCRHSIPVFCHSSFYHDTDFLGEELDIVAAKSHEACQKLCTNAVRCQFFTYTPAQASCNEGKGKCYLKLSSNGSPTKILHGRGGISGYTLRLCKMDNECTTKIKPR

T1 sequence (P03952 391-638 limits assumed): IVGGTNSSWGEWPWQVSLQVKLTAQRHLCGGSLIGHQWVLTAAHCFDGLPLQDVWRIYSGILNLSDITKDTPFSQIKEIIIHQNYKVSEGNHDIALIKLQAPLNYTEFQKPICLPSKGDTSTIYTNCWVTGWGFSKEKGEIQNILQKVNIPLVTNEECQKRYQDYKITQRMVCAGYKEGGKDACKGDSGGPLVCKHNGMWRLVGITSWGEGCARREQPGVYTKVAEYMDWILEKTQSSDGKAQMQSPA
T1 sequence (P03952 20-390 partner limits assumed): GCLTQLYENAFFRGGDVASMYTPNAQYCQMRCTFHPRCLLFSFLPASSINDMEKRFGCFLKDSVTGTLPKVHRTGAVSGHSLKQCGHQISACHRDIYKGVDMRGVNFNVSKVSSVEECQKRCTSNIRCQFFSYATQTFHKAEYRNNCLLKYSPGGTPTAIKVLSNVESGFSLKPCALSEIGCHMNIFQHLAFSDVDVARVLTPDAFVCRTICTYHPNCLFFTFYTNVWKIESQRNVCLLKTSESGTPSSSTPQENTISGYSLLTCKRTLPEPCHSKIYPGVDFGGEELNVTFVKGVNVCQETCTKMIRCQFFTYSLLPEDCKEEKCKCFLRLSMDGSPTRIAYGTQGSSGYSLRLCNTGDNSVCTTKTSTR

Structure (SMILES)	IC50 (Human plasma kallikrein)	IC50 (human factor XIa)
Cc1c(CO)cccc1-n1ncc(C(=O)N2CCC[C@@]3(C2)OC(=O)Nc2ccc(Cl)c(F)c23)c1N [Example 63, (R)-1'-(5-Amino-1-(3-(hydroxymethyl)-2-methylphenyl)-1H-pyrazole-4-carbonyl)-6-chloro-5-fluorospiro[benzo[d][1,3]oxazine-4,3'-piperidin]-2(1H)-one]	29 nM	1580 nM
Nc1c(C(=O)N2CCC[C@@]3(C2)OC(=O)Nc2ccc(Cl)c(F)c23)cnn1-c1ccnc2ccc(F)cc12 [Example 60, (R)-1'-(5-Amino-1-(6-fluoroquinolin-4-y1)-1H-pyrazole-4-carbonyl)-6-chloro-5-fluorospiro[benzo[d][1,3]oxazine-4,3'-piperidin]-2(1H)-one]	8 nM	599 nM
Nc1c(C(=O)N2CCC[C@@]3(C2)OC(=O)Nc2ccc(Cl)c(F)c23)cnn1-c1cccc(F)c1OC(F)F [Example 107, (R)-1'-(5-Amino-1-(2-(difluoromethoxy)-3-fluorophenyl)-1H-pyrazole-4-carbonyl)-6-chloro-5-fluorospiro[benzo[d][1,3]oxazine-4,3'-piperidin]-2(1H)-one]	15.2 nM	461 nM
COc1cc(F)ccc1-n1ncc(C(=O)N2CCC[C@@]3(C2)OC(=O)Nc2ccc(Cl)c(F)c23)c1N [Example 100, (R)-1'-(5-Amino-1-(4-fluoro-2-methoxyphenyl)-1H-pyrazole-4-carbonyl)-6-chloro-5-fluorospiro[benzo[d][1,3]oxazine-4,3'-piperidin]-2(1H)-one]	9 nM	375 nM
Cc1cccc(-n2ncc(C(=O)N3CCC[C@@]4(C3)OC(=O)Nc3ccc(Cl)c(F)c34)c2N)c1C [Example 85, (R)-1'-(5-Amino-1-(2,3-dimethylphenyl)-1H-pyrazole-4-carbonyl)-6-chloro-5-fluorospiro[benzo[d][1,3]oxazine-4,3'-piperidin]-2(1H)-one]	9.2 nM	1950 nM
Nc1c(C(=O)N2CCC[C@@]3(C2)OC(=O)Nc2ccc(Cl)c(F)c23)cnn1-c1ccccc1OC(F)F [Example 90, (R)-1'-(5-Amino-1-(2-(difluoromethoxy)phenyl)-1H-pyrazole-4-carbonyl)-6-chloro-5-fluorospiro[benzo[d][1,3]oxazine-4,3'-piperidin]-2(1H)-one]	6.6 nM	215 nM
Cc1ccc(-n2ncc(C(=O)N3CCC[C@@]4(C3)OC(=O)Nc3ccc(Cl)c(F)c34)c2N)cc1 [Example 111, (R)-1'-(5-Amino-1-(p-toly1)-1H-pyrazole-4-carbonyl)-6-chloro-5-fluorospiro[benzo[d][1,3]oxazine-4,3'-piperidin]-2(1H)-one]	80.3 nM	2990 nM
COc1cccnc1-n1ncc(C(=O)N2CCC[C@@]3(C2)OC(=O)Nc2ccc(Cl)c(F)c23)c1N [Example 108, (R)-1'-(5-Amino-1-(3-methoxypyridin-2-y1)-1H-pyrazole-4-carbonyl)-6-chloro-5-fluorospiro[benzo[d][1,3]oxazine-4,3'-piperidin]-2(1H)-one]	39.6 nM	1690 nM
COC(=O)c1ccc(-n2ncc(C(=O)N3CCC[C@@]4(C3)OC(=O)Nc3ccc(Cl)c(F)c34)c2N)c(OC)c1 [Example 92, Methyl (R)-4-(5-amino-4-(6-chloro-5-fluoro-2-oxo-1,2-dihydrospiro[benzo[d][1,3]oxazine-4,3'-piperidine]-l'-carbonyl)-1H-pyrazol-1-yl)-3-methoxybenzoate]	13.2 nM	1710 nM
Nc1c(C(=O)N2CCC[C@@]3(C2)OC(=O)Nc2ccc(Cl)c(F)c23)cnn1-c1ccccc1OC1CCC1 [Example 97, (R)-1'-(5-Amino-1-(2-cyclobutoxyphenyl)-1H-pyrazole-4-carbonyl)-6-chloro-5-fluorospiro[benzo[d][1,3]oxazine-4,3'-piperidin]-2(1H)-one]	8 nM	1290 nM

The remaining lines, values ahead:

IC50 (Human plasma kallikrein)	IC50 (human factor XIa)	Structure (SMILES)
2 nM	140 nM	Nc1c(C(=O)N2CCC[C@@]3(C2)OC(=O)Nc2ccc(Cl)c(F)c23)cnn1CC1CCCCC1 [Example 36, (R)-1'-(5-Amino-1-(cyclohexylmethyl)-1H-pyrazole-4-carbonyl)-6-chloro-5-fluorospiro[benzo[d][1,3]oxazine-4,3'-piperidin]-2(1H)-one]
2.8 nM	103 nM	Nc1c(C(=O)N2CCC[C@@]3(C2)OC(=O)Nc2ccc(Cl)c(F)c23)cnn1C(C(F)(F)F)C1(F)CC1 (single isomer, unassigned) [Example 114, (R)-1'-(5-Amino-1-((R or S)-2,2,2-trifluoro-1-(1-fluorocyclopropyl)ethyl)-1H-pyrazole-4-carbonyl)-6-chloro-5-fluorospiro[benzo[d][1,3]oxazine-4,3'-piperidin]-2(1H)-one]
42.8 nM	3180 nM	Nc1c(C(=O)N2CCC[C@@]3(C2)OC(=O)Nc2ccc(Cl)c(F)c23)cnn1CCN1CCOCC1 [Example 14, (R)-1'-(5-Amino-1-(2-morpholinoethyl)-1H-pyrazole-4-carbonyl)-6-chloro-5-fluorospiro[benzo[d][1,3]oxazine-4,3'-piperidin]-2(1H)-one]
11.2 nM	408 nM	Nc1c(C(=O)N2CCC[C@@]3(C2)OC(=O)Nc2ccc(Cl)c(F)c23)cnn1CC(F)(F)F [Example 1, (R)-1′-(5-Amino-1-(2,2,2-trifluoroethyl)-1H-pyrazole-4-carbonyl)-6-chloro-5-fluorospiro[benzo[d][1,3]oxazine-4,3′-piperidin]-2(1H)-one]
4.3 nM	221 nM	CC(n1ncc(C(=O)N2CCC[C@@]3(C2)OC(=O)Nc2ccc(Cl)c(F)c23)c1N)C(F)(F)F (single isomer, unassigned) [Example 120, (R)-1'-(5-Amino-1-((R or S)-1,1,1-trifluoropropan-2-y1)-1H-pyrazole-4-carbonyl)-6-chloro-5-fluorospiro[benzo[d][1,3]oxazine-4,3'-piperidin]-2(1H)-one]
8 nM	905 nM	Nc1c(C(=O)N2CCC[C@@]3(C2)OC(=O)Nc2ccc(Cl)c(F)c23)cnn1Cc1ccc(C(F)(F)F)nc1 [Example 43, (R)-1'-(5-Amino-1-((6-(trifluoromethyl)pyridin-3-yl)methyl)-1H-pyrazole-4-carbonyl)-6-chloro-5-fluorospiro[benzo[d][1,3]oxazine-4,3'-piperidin]-2(1H)-one]
8.3 nM	352 nM	Nc1c(C(=O)N2CCC[C@@]3(C2)OC(=O)Nc2ccc(Cl)c(F)c23)cnn1CC1(C(F)(F)F)CC1 [Example 26, (R)-1'-(5-Amino-1-((1-(trifluoromethyl)cyclopropyl)methyl)-1H-pyrazole-4-carbonyl)-6-chloro-5-fluorospiro[benzo[d][1,3]oxazine-4,3'-piperidin]-2(1H)-one]
8.9 nM	1200 nM	CC(C)n1ncc(C(=O)N2CCC[C@@]3(C2)OC(=O)Nc2ccc(Cl)c(F)c23)c1N [Example 34, (R)-1'-(5-Amino-1-isopropyl-1H-pyrazole-4-carbonyl)-6-chloro-5-fluorospiro[benzo[d][1,3]oxazine-4,3'-piperidin]-2(1H)-one]
